Source: ChEMBL document CHEMBL3885881, “DrugMatrix”

Organism: Rattus norvegicus
Experiment: DrugMatrix - Regimen: Daily Repeat
Format: toxicity, organism-based, Sprague-Dawley
Design: regimen Daily Repeat, gender Male, age 6-8 weeks
Details: in vivo, iv, vehicle 100 % SALINE; for ABSOLUTE BASOPHIL / ABSOLUTE EOSINOPHIL / ABSOLUTE LYMPHOCYTE / ABSOLUTE MONOCYTE / ABSOLUTE SEGMENTED NEUTROPHIL / BASOPHIL / EOSINOPHIL / ERYTHROCYTE COUNT / HEMATOCRIT / HEMOGLOBIN / LEUKOCYTE COUNT / LYMPHOCYTE / MEAN CORPUSCULAR HEMOGLOBIN / MEAN CORPUSCULAR HEMOGLOBIN CONCENTRATION / MEAN CORPUSCULAR VOLUME / MONOCYTE / NEUTROPHIL / NUCLEATED RED BLOOD CELLS / PLATELET COUNT: tissue Blood; for ALANINE AMINOTRANSFERASE / ALBUMIN / ALKALINE PHOSPHATASE / ASPARTATE AMINOTRANSFERASE / BLOOD UREA NITROGEN / CARBON DIOXIDE / CHLORIDE / CHOLESTEROL / CREATINE PHOSPHOKINASE / CREATININE / GLUCOSE / LACTATE DEHYDROGENASE / LIPASE / PHOSPHORUS / POTASSIUM / SODIUM / TOTAL BILIRUBIN / TOTAL PROTEIN / URIC ACID: tissue Plasma
[1] = 0.5 mg/kg, 120 h, dose level Low, time 5 day
[2] = […], 72 h, dose 1.7 mg/Kg, dose level High, time 3 day
[3] = […], 120 h, dose 1.7 mg/Kg, dose level High, time 5 day

SMILES: CO[C@@]12[C@H](COC(N)=O)C3=C(C(=O)C(C)=C(N)C3=O)N1C[C@@H]1N[C@@H]12 [MITOMYCIN]
- ABSOLUTE BASOPHIL [1]: 0 CELLS/uL
- ABSOLUTE EOSINOPHIL [1]: 31 CELLS/uL
- ABSOLUTE LYMPHOCYTE [1]: 7760.33 CELLS/uL
- ABSOLUTE MONOCYTE [1]: 22.67 CELLS/uL
- ABSOLUTE SEGMENTED NEUTROPHIL [1]: 286 CELLS/uL
- BASOPHIL [1]: 0%
- EOSINOPHIL [1]: 0.33%
- ERYTHROCYTE COUNT [1]: 6.12 x10E6/uL
- HEMATOCRIT [1]: 36.83%
- HEMOGLOBIN [1]: 14.33 G/DL
- LEUKOCYTE COUNT [1]: 8.1 x10E3/uL
- LYMPHOCYTE [1]: 96%
- MEAN CORPUSCULAR HEMOGLOBIN [1]: 23.4 pg
- MEAN CORPUSCULAR HEMOGLOBIN CONCENTRATION [1]: 38.9 G/DL
- MEAN CORPUSCULAR VOLUME [1]: 60.2 fL
- MONOCYTE [1]: 0.33%
- NEUTROPHIL [1]: 3.33%
- NUCLEATED RED BLOOD CELLS [1]: 0.67 /100WBC
- PLATELET COUNT [1]: 1302.33 x10E3/uL
- ALANINE AMINOTRANSFERASE [1]: 47.33 u/L
- ALBUMIN [1]: 4.03 G/DL
- ALKALINE PHOSPHATASE [1]: 285.67 u/L
- ASPARTATE AMINOTRANSFERASE [1]: 78 u/L
- BLOOD UREA NITROGEN [1]: 16.33 mg/dL
- CARBON DIOXIDE [1]: 29.33 mmol/L
- CHLORIDE [1]: 101.67 MEQ/L
- CHOLESTEROL [1]: 67.33 mg/dL
- CREATINE PHOSPHOKINASE [1]: 203 u/L
- CREATININE [1]: 0.34 mg/dL
- GLUCOSE [1]: 154 mg/dL
- LACTATE DEHYDROGENASE [1]: 120 u/L
- LIPASE [1]: 11 u/L
- PHOSPHORUS [1]: 10.5 mg/dL
- POTASSIUM [1]: 4.84 MEQ/L
- SODIUM [1]: 145.67 MEQ/L
- TOTAL BILIRUBIN [1]: 0.13 mg/dL
- TOTAL PROTEIN [1]: 5.83 G/DL
- URIC ACID [1]: 0.57 mg/dL
- ABSOLUTE BASOPHIL [2]: 0 CELLS/uL
- ABSOLUTE EOSINOPHIL [2]: 31.67 CELLS/uL
- ABSOLUTE LYMPHOCYTE [2]: 7497.33 CELLS/uL
- ABSOLUTE MONOCYTE [2]: 0 CELLS/uL
- ABSOLUTE SEGMENTED NEUTROPHIL [2]: 1104.33 CELLS/uL
- BASOPHIL [2]: 0%
- EOSINOPHIL [2]: 0.33%
- ERYTHROCYTE COUNT [2]: 5.47 x10E6/uL
- HEMATOCRIT [2]: 33.9%
- HEMOGLOBIN [2]: 13.43 G/DL
- LEUKOCYTE COUNT [2]: 8.63 x10E3/uL
- LYMPHOCYTE [2]: 86.67%
- MEAN CORPUSCULAR HEMOGLOBIN [2]: 24.6 pg
- MEAN CORPUSCULAR HEMOGLOBIN CONCENTRATION [2]: 39.63 G/DL
- MEAN CORPUSCULAR VOLUME [2]: 62.07 fL
- MONOCYTE [2]: 0%
- NEUTROPHIL [2]: 13%
- NUCLEATED RED BLOOD CELLS [2]: 0 /100WBC
- PLATELET COUNT [2]: 1626.67 x10E3/uL
- ALANINE AMINOTRANSFERASE [2]: 35.67 u/L
- ALBUMIN [2]: 4.03 G/DL
- ALKALINE PHOSPHATASE [2]: 211 u/L
- ASPARTATE AMINOTRANSFERASE [2]: 72.33 u/L
- BLOOD UREA NITROGEN [2]: 13.33 mg/dL
- CARBON DIOXIDE [2]: 29.33 mmol/L
- CHLORIDE [2]: 99.33 MEQ/L
- CHOLESTEROL [2]: 71.33 mg/dL
- CREATINE PHOSPHOKINASE [2]: 245.67 u/L
- CREATININE [2]: 0.15 mg/dL
- GLUCOSE [2]: 145.33 mg/dL
- LACTATE DEHYDROGENASE [2]: 173 u/L
- LIPASE [2]: 8 u/L
- PHOSPHORUS [2]: 11.53 mg/dL
- POTASSIUM [2]: 5.56 MEQ/L
- SODIUM [2]: 141.2 MEQ/L
- TOTAL BILIRUBIN [2]: 0.1 mg/dL
- TOTAL PROTEIN [2]: 5.6 G/DL
- URIC ACID [2]: 1.6 mg/dL
- ABSOLUTE BASOPHIL [3]: 0 CELLS/uL
- ABSOLUTE EOSINOPHIL [3]: 0 CELLS/uL
- ABSOLUTE LYMPHOCYTE [3]: 2370 CELLS/uL
- ABSOLUTE MONOCYTE [3]: 67 CELLS/uL
- ABSOLUTE SEGMENTED NEUTROPHIL [3]: 663 CELLS/uL
- BASOPHIL [3]: 0%
- EOSINOPHIL [3]: 0%
- ERYTHROCYTE COUNT [3]: 6.15 x10E6/uL
- HEMATOCRIT [3]: 38.97%
- HEMOGLOBIN [3]: 14.9 G/DL
- LEUKOCYTE COUNT [3]: 3.1 x10E3/uL
- LYMPHOCYTE [3]: 78.33%
- MEAN CORPUSCULAR HEMOGLOBIN [3]: 24.23 pg
- MEAN CORPUSCULAR HEMOGLOBIN CONCENTRATION [3]: 38.23 G/DL
- MEAN CORPUSCULAR VOLUME [3]: 63.33 fL
- MONOCYTE [3]: 2%
- NEUTROPHIL [3]: 19.67%
- NUCLEATED RED BLOOD CELLS [3]: 0 /100WBC
- PLATELET COUNT [3]: 1554 x10E3/uL
- ALANINE AMINOTRANSFERASE [3]: 21.33 u/L
- ALBUMIN [3]: 3.37 G/DL
- ALKALINE PHOSPHATASE [3]: 94.67 u/L
- ASPARTATE AMINOTRANSFERASE [3]: 57 u/L
- BLOOD UREA NITROGEN [3]: 15 mg/dL
- CARBON DIOXIDE [3]: 30.67 mmol/L
- CHLORIDE [3]: 100.33 MEQ/L
- CHOLESTEROL [3]: 84.67 mg/dL
- CREATINE PHOSPHOKINASE [3]: 265.67 u/L
- CREATININE [3]: 0.26 mg/dL
- GLUCOSE [3]: 154 mg/dL
- LACTATE DEHYDROGENASE [3]: 136.67 u/L
- LIPASE [3]: 10.67 u/L
- PHOSPHORUS [3]: 8.73 mg/dL
- POTASSIUM [3]: 4.86 MEQ/L
- SODIUM [3]: 144.3 MEQ/L
- TOTAL BILIRUBIN [3]: 0.1 mg/dL
- TOTAL PROTEIN [3]: 5.13 G/DL
- URIC ACID [3]: 0.57 mg/dL
